In patent US7803803B2, “Tetrahydrofuro[3,2-B] pyrrol-3-ones as cathepsin K inhibitors” (Amura Therapeutics Limited, priority 2007, dated 2010):

Tests used:
[1] = Plasma incubations (human plasma stability); assay type: in vitro ADME; conditions: 37° C. Note: tested at 25 µM.
Procedure: Aliquots were removed at 2 and 60 minutes and quenched with an equal volume of cold acetonitrile. After mixing vigorously, the precipitated protein matter was removed by filtration (Multiscreen Solvinert filter plates, Millipore, Bedford, Mass., USA) and the filtrate analysed by reverse phase HPLC with mass spectrometric detection, using single ion monitoring of the [M+H]^+ species. Metabolic turnover was determined by comparison of peak areas from the ion chromatograms of the parent compound at 2 and 60 minutes and expressed as percent remaining at 1 hour.

[2] = LogD determinations; assay type: physicochemical; conditions: Ion-count method; for logD at 1 h: 1-octanol/phosphate buffered saline, pH 7.4, pH 7.4
Procedure: LogD(PBS) determinations were performed in 96 well microtitre plates using a miniaturised “shake-flask” method. […] The plates were then capped and mixed vigorously for 1 hour on a microtitre plate shaker, after which they were left to stand, allowing the PBS and octanol phases to separate. The PBS layer was analysed by reverse phase HPLC with mass spectrometric detection, using single ion monitoring of the [M+H]^+ species.
Where AUCstd and AUCpbs are the peak areas from the standard and test ion chromatograms respectively.

[3] = tested on: human osteoclasts; conditions: human osteoclast, literature value; cited from earlier work
[4] = UV method, literature value; cited from earlier work
[5] = target: T1, cathepsin K (Homo sapiens, UniProt P43235); assay: In vitro cathepsin Ki inhibition measurements; assay type: biochemical; parameters: purchased B. Turk, Josef Stefan Institute, Ljubljana, Slovenia; conditions: human recombinant cathepsin K; read-out: In vitro Ki (nM) vs Cath K
T1 sequence (P43235 115-329): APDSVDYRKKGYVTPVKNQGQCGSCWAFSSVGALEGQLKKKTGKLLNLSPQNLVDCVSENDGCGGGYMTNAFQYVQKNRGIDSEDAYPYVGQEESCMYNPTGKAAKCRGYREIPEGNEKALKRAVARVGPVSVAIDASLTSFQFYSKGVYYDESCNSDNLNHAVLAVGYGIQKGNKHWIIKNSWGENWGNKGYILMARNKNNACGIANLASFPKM
Procedure: Stock solutions of substrate or inhibitor were made up to 10 mM in 100% dimethylsulfoxide (DMSO) (Rathburns, Glasgow, U.K.) and diluted as appropriately required. In all cases the DMSO concentration in the assays was maintained at less than 1% (vol./vol.). The equilibrium inhibition constants (Ki^SS) for each compound were measured under steady-state conditions monitoring enzyme activity as a function of inhibitor concentration. The values were calculated on the assumption of pure competitive behaviour (Cornish-Bowden, A. Fundamentals of enzyme kinetics Portland Press; 1995, 93-128). Human recombinant cathepsin K (0.25 nM final; B. Turk, Josef, Stefan Institute, Ljubljana, Slovenia), was routinely assayed in 100 mM sodium acetate; pH 5.5 containing 1 mM EDTA, 10 mM L-cysteine and 1.8 μM Z-Leu-Arg-AMC ([S]═KM).
The apparent inhibition constant (Ki) for each compound was determined on the basis that inhibition was reversible and occurred by a pure-competitive mechanism. The Ki values were calculated, from the dependence of enzyme activity as a function of inhibitor concentration, by direct regression analysis (Prism v 3.02) using Equation 2 (Cornish-Bowden, A., 1995).
In situations where the apparent dissociation constant (Ki^app) approached the enzyme concentrations, the Ki^app values were calculated using a quadratic solution in the form described by Equation 3 (Morrison, J. F. Trends Biochem. Sci., 7, 102-105, 1982; Morrison, J. F. Biochim. Biophys. Acta, 185, 269-286, 1969; Stone, S. R. and Hofsteenge, J. Biochemistry, 25, 4622-4628, 1986).
Curves were fitted by non-linear regression analysis (Prism) using a fixed value for the enzyme concentration. Equation 4 was used to account for the substrate kinetics, where ‘Ki’ is the inhibition constant, ‘[So]’ is the initial substrate concentration and ‘KM^app’ is the apparent macroscopic binding (Michaelis) constant for the substrate (Morrison, 1982).

[6] = tested on: human osteoclasts; assay: Human osteoclast resorption assay; assay type: cell-based; conditions: Homo sapiens, Osteoclast, 48 h, 1 □ M, read-out: Cell-based % Inh. @ 1 □ M Human
Procedure: Bone resorption was studied using a model where human osteoclast precursor cells were cultured on bovine bone slices for 9 days and allowed to differentiate into bone-resorbing osteoclasts. The formed mature osteoclasts were then allowed to resorb bone. The assay was performed by Pharmatest Services Ltd, Itäinen Pitkakatu 4C, Turku, Finland. After the culture period, bone collagen degradation products were quantified from the culture medium as an index of bone resorption. Inhibitor compounds were added into the cell cultures after the differentiation period and their effects on the resorbing activity of mature osteoclasts were determined. The studies included a baseline group without added compounds and a positive control group where a potent cathepsin K inhibitor E-64 was added.
Human peripheral blood monocytes were suspended to culture medium and allowed to attach to bovine bone slices. The bone slices were transferred into 96-well tissue culture plates containing culture medium with appropriate amounts of important growth factors favouring osteoclast differentiation, including M-CSF, RANK-ligand and TGF-[…]. The cells were incubated in a CO2 incubator in humidified atmosphere of 95% air and 5% carbon dioxide at 37° C. At day 7 when osteoclast differentiation was complete, the culture medium was replaced with culture medium containing conditions favouring osteoclast activity. The cell culture was continued for an additional 2 days, during which the formed mature osteoclasts were allowed to resorb bone in the presence of vehicle, control inhibitor (E64) or test compounds. At the end of the culture, bone collagen degradation products released into the culture medium were determined using a commercially available ELISA method (CrossLaps® for culture, Nordic Bioscience, Herlev, Denmark) as an index of bone resorption (see Bagger, Y. Z. et al, J. Bone. Miner. Res. 14 (suppl. 1), S370).

Human Plasma Stability % rem. @ 1 h [1] [%] | logD at 1 h [2] | Ki [5] [nM] | LogD pH 7.4 ([2]; pH 7.4) | Structure (SMILES) | Cell-based % Inh. @ 1 □ M Human (Lit.) [3] | LogD pH 7.4 (Lit.) [4] | inhibition at 1 µM [6] [%]
75 | 1.36 | – | – | CC(C)C[C@H](NC(=O)c1ccc(C(C)(C)C)cc1)C(=O)N1CC[C@H]2OCC(=O)[C@H]21 [reference compound] | Lit. 60% | – | –
95 | 0.56 | 8.7 | – | CC(C)C[C@H](NC(=O)c1ccc(N2CCN(C)CC2)cc1)C(=O)N1CC[C@H]2OCC(=O)[C@H]21 [reference compound] | – | 0.04 | –
91 | > 0.8 | 8.4 | 1.2 | CO[C@@H]1CN(C(=O)[C@H](CC(C)(C)C)NC(=O)c2ccc(N3CCN(C(C)C)CC3)cc2)[C@@H]2C(=O)CO[C@@H]21 [Example 22, 4-(4-isopropylpiperazin-1-yl)-N—((S)-1-((3aS,6R,6aS)-6-methoxy-3-oxodihydro-2H-furo[3,2-b]pyrrol-4(5H,6H,6aH)-yl)-4,4-dimethyl-1-oxopentan-2-yl)benzamide] | – | – | 63 to 88
